The values that follow come from patent US8541588B2, “Sulfonamide derivatives” (Pfizer Limited, priority 2009, dated 2013).

As a reminder, the IC50 is the midpoint of a concentration-inhibition curve.

One assay deals with T1, Nav1.7 (or SCN9A) channel; HEK cells stably transfected with hSCN9A (Homo sapiens, UniProt Q15858).
T1 construct: expressed in transfected cells
T1 sequence (Q15858 whole entry): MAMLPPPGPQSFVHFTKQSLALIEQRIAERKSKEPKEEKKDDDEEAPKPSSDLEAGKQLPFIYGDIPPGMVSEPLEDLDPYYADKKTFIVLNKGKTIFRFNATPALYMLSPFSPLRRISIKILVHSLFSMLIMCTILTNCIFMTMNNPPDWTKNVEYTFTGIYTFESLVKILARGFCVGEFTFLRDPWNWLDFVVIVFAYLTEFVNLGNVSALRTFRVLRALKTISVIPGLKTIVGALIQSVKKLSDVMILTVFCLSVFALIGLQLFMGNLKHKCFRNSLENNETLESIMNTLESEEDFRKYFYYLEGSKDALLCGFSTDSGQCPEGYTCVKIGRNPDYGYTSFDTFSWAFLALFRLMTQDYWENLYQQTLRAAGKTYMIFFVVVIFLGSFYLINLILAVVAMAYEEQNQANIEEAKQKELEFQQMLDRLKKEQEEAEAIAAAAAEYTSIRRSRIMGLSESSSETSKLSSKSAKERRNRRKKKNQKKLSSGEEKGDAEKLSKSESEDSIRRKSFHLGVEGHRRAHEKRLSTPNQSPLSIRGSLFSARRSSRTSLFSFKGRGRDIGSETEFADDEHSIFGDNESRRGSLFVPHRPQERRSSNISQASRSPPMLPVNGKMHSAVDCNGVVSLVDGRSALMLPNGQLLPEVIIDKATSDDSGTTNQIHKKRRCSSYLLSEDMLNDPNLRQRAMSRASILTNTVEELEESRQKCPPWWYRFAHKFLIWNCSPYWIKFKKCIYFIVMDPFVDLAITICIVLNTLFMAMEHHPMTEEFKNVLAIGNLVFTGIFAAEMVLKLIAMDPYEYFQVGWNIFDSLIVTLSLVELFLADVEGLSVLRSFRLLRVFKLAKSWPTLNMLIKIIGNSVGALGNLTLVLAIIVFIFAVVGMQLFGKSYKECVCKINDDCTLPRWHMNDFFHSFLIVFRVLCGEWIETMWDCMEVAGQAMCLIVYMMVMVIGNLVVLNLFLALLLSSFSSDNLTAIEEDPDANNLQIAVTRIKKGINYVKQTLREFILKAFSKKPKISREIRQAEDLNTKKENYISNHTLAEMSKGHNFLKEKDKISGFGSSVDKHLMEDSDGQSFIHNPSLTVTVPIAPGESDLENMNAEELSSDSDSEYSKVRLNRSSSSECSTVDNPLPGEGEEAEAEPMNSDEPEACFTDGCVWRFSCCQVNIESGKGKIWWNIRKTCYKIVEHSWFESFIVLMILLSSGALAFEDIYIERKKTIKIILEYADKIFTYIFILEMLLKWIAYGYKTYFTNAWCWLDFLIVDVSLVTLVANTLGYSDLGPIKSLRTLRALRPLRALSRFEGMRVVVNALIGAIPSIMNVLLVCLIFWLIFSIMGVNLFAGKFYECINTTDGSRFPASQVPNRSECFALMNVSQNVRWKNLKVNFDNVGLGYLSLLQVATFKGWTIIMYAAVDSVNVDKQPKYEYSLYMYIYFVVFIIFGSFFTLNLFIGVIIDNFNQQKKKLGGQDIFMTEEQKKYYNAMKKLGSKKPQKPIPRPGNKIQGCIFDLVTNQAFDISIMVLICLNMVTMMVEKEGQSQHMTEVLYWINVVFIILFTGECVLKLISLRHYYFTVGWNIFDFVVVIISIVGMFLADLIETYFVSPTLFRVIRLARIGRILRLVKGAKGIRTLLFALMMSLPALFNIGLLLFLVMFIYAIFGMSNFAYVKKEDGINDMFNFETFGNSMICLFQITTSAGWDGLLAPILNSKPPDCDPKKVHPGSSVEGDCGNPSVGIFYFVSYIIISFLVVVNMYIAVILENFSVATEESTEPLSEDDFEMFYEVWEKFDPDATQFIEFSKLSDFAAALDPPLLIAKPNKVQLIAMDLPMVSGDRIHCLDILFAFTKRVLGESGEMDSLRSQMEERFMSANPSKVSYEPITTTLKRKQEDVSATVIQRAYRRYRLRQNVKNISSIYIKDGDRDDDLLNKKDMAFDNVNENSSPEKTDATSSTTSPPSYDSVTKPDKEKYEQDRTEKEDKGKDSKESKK
Description: Nav1.7 block, PatchXpress 7000 automated whole-cell voltage clamp, estimated IC50 (EIC50). Type of assay: cell-based. The following applies: PatchXpress platform; hSCN9A HEK cells held at V1/2 of inactivation; estimated IC50.
In the case of `Cc1cc(OC(C)C)ccc1-c1ccccc1Oc1ccc(S(=O)(=O)Nc2ncns2)cc1C#N` [Example 4, 3-cyano-4-[(4′-isopropoxy-2′-methylbiphenyl-2-yl)oxy]-N-1,2,4-thiadiazol-5-ylbenzenesulfonamide], the IC50 was 1710 nM.
Consider `Cn1cc(-c2ccc(Cl)cc2)c(Oc2ccc(S(=O)(=O)Nc3ncc(Cl)s3)cc2C#N)n1` [Example 137, 4-{[4-(4-chlorophenyl)-1-methyl-1H-pyrazol-3-yl]oxy}-N-(5-chloro-1,3-thiazol-2-yl)-3-cyanobenzenesulfonamide], for which the half-maximal inhibitory concentration (IC50) was 2590 nM.
For the molecule `Cc1noc(C)c1Cc1ccc(Oc2ccc(S(=O)(=O)Nc3nccs3)cc2F)cc1` [Example 122, 4-{4-[(3,5-dimethylisoxazol-4-yl)methyl]phenoxy}-3-fluoro-N-1,3-thiazol-2-ylbenzenesulfonamide], the concentration for half-maximal inhibition (IC50) was 4540 nM.
For the molecule `N#Cc1cc(S(=O)(=O)Nc2ncns2)ccc1Oc1ccc(F)cc1-c1cc(F)ccc1F` [Example 33, 3-cyano-N-1,2,4-thiadiazol-5-yl-4-[(2′,5,5′-trifluorobiphenyl-2-yl)oxy]benzenesulfonamide], the IC50 was 380 nM.
Turning to `Cc1cc(-c2ccccc2Oc2ccc(S(=O)(=O)Nc3nccs3)cc2F)sn1` [Example 128, 3-fluoro-4-[2-(3-methylisothiazol-5-yl)phenoxy]-N-1,3-thiazol-2-ylbenzenesulfonamide], the IC50 is 3110 nM.
Take `NC(=O)c1cc(S(=O)(=O)Nc2nccs2)ccc1Oc1cnn(Cc2ccc(Cl)cc2)c1` [Example 249, 2-(1-(4-chlorobenzyl)-1H-pyrazol-4-yloxy)-5-(N-thiazol-2-ylsulfamoyl)benzamide]: the IC50 was 2400 nM.
With `Cn1nccc1-c1c(F)cccc1Oc1ccc(S(=O)(=O)Nc2ncns2)cc1C#N` [Example 86, 3-cyano-4-[3-fluoro-2-(1-methyl-1H-pyrazol-5-yl)phenoxy]-N-1,2,4-thiadiazol-5-ylbenzenesulfonamide], the IC50 was 1880 nM.
On to `COc1ccc(-c2cccc(C)c2Oc2ccc(S(=O)(=O)Nc3ncns3)cc2C#N)cc1F` [Example 41, 3-cyano-4-[(3′-fluoro-4′-methoxy-3-methylbiphenyl-2-yl)oxy]-N-1,2,4-thiadiazol-5-ylbenzenesulfonamide], for which the IC50 is 10900 nM.

Staying with this assay, now noted: estimated IC50; hSCN9A HEK cells, PatchXpress platform; Examples 283-814.
For `Nc1cc(-c2cc(Cl)ccc2Oc2cc(F)c(S(=O)(=O)Nc3ncns3)cc2Cl)ccn1` [Example 732, 4-[2-(2-aminopyridin-4-yl)-4-chlorophenoxy]-5-chloro-2-fluoro-N-1,2,4-thiadiazol-5-ylbenzenesulfonamide], the concentration for half-maximal inhibition (IC50) was 3.5 nM.
The same measure, in the same setting: next, `N#Cc1cc(S(=O)(=O)Nc2ncn[nH]2)ccc1Oc1ccccc1-c1ccccc1` [Example 431, 4-(biphenyl-2-yloxy)-3-cyano-N-1H-1,2,4-triazol-5-ylbenzenesulfonamide]: 11000 nM; `Nc1cccc(-c2cc(Cl)ccc2Oc2cc(F)c(S(=O)(=O)Nc3ncns3)cc2Cl)n1` [Example 403, 4-[2-(6-aminopyridin-2-yl)-4-chlorophenoxy]-5-chloro-2-fluoro-N-1,2,4-thiadiazol-5-ylbenzenesulfonamide]: 4.5 nM; `N#Cc1cc(S(=O)(=O)Nc2cscn2)ccc1Oc1ccc(Cl)cc1-c1cn[nH]c1` [Example 767, 4-[4-chloro-2-(1H-pyrazol-4-yl)phenoxy]-3-cyano-N-1,3-thiazol-4-ylbenzenesulfonamide]: 240 nM.
On the same count and under the same terms, under `O=S(=O)(Nc1nncs1)c1cc(Cl)c(Oc2ccc(Cl)cc2-c2ccn[nH]2)cc1F` [Example 300, 5-chloro-4-[4-chloro-2-(1H-pyrazol-5-yl)phenoxy]-2-fluoro-N-1,3,4-thiadiazol-2-ylbenzenesulfonamide] stands 39 nM.
Regarding `Cn1nc(C(F)(F)F)cc1-c1ccc(Oc2ccc(S(=O)(=O)Nc3ncns3)cc2C#N)c(C#N)c1` [Example 293, 3-cyano-4-{2-cyano-4-[1-methyl-3-(trifluoromethyl)-1H-pyrazol-5-yl]phenoxy}-N-1,2,4-thiadiazol-5-ylbenzenesulfonamide], the IC50 was 93 nM.
On the same count and under the same terms, next, `N#Cc1cc(S(=O)(=O)Nc2nccs2)ccc1Oc1ccc(-n2nc(C(F)F)cc2CO)cc1` [Example 708, 3-cyano-4-{4-[3-(difluoromethyl)-5-(hydroxymethyl)-1H-pyrazol-1-yl]phenoxy}-N-1,3-thiazol-2-ylbenzenesulfonamide]: 400 nM; `N#Cc1cc(S(=O)(=O)Nc2ncc(Cl)s2)ccc1Oc1ccc(F)cc1-c1ccnc(N)c1` [Example 584, 4-[2-(2-Aminopyridin-4-yl)-4-fluorophenoxy]-N-(5-chloro-1,3-thiazol-2-yl)-3-cyanobenzenesulfonamide]: 97 nM.
As to `O=S(=O)(Nc1cscn1)c1cc(Cl)c(Oc2ccc(F)cc2-c2ccnn2C2CNC2)cc1F` [Example 808, 4-[2-(1-Azetidin-3-yl-1H-pyrazol-5-yl)-4-fluorophenoxy]-5-chloro-2-fluoro-N-1,3-thiazol-4-ylbenzenesulfonamide], the half-maximal inhibitory concentration (IC50) is 7 nM.
On to `CN1CC(n2nccc2-c2cc(F)ccc2Oc2cc(F)c(S(=O)(=O)Nc3cscn3)cc2Cl)C1` [Example 807, 5-Chloro-2-fluoro-4-{4-fluoro-2-[1-(1-methylazetidin-3-yl)-1H-pyrazol-5-yl]phenoxy}-N-1,3-thiazol-4-ylbenzenesulfonamide], for which the IC50 was 15 nM.
For the molecule `CCn1nc(C(C)(C)C#N)cc1-c1ccc(Oc2ccc(S(=O)(=O)Nc3nccs3)cc2C#N)cc1` [Example 548, 3-cyano-4-{4-[3-(1-cyano-1-methylethyl)-1-ethyl-1H-pyrazol-5-yl]phenoxy}-N-1,3-thiazol-2-ylbenzenesulfonamide], the IC50 was 410 nM.
As to `O=S(=O)(Nc1ncns1)c1cc(Cl)c(Oc2cc(F)ccc2-c2ccn[nH]2)cc1F` [Example 773, 5-chloro-2-fluoro-4-[5-fluoro-2-(1H-pyrazol-5-yl)phenoxy]-N-1,2,4-thiadiazol-5-ylbenzenesulfonamide], the IC50 was 6.9 nM.
`CN(C)C(=O)c1cnn(-c2ccc(Oc3ccc(S(=O)(=O)Nc4nccs4)cc3C#N)cc2)c1` [Example 375, 1-(4-{2-cyano-4-[(1,3-thiazol-2-ylamino)sulfonyl]phenoxy}phenyl)-N,N-dimethyl-1H-pyrazole-4-carboxamide]: the IC50 was over 1000 nM.
`N#Cc1cc(S(=O)(=O)Nc2ncns2)ccc1Oc1ccc(Cl)cc1-c1ccnc(Cl)c1` [Example 743, 4-[4-chloro-2-(2-chloropyridin-4-yl)phenoxy]-3-cyano-N-1,2,4-thiadiazol-5-ylbenzenesulfonamide]: the IC50 was 12 nM.

The same assay, now with this note: estimated IC50; hSCN9A HEK cells, PatchXpress platform; Examples 815-1040.
As to `COC(=O)c1cccc(-c2cc(Cl)ccc2Oc2ccc(S(=O)(=O)Nc3ncns3)cc2C#N)c1` [Example 1003, methyl 5′-chloro-2′-{2-cyano-4-[(1,2,4-thiadiazol-5-ylamino)sulfonyl]phenoxy}biphenyl-3-carboxylate], the IC50 is 20 nM.
On to `N#Cc1cc(S(=O)(=O)Nc2ncns2)ccc1Oc1cc(Cl)c(Cl)cc1-c1ccnnc1` [Example 971, 3-cyano-4-(4,5-dichloro-2-pyridazin-4-ylphenoxy)-N-1,2,4-thiadiazol-5-ylbenzenesulfonamide], for which the IC50 is 8.5 nM.
On to `N#Cc1cc(S(=O)(=O)Nc2ncns2)ccc1Oc1cc(OC(F)(F)F)ccc1-c1ccnnc1` [Example 957, 3-cyano-4-[2-pyridazin-4-yl-5-(trifluoromethoxy)phenoxy]-N-1,2,4-thiadiazol-5-ylbenzenesulfonamide], for which the IC50 is 22 nM.
On the same count and under the same terms, under `CCN1CC(n2nccc2-c2cc(F)ccc2Oc2cc(F)c(S(=O)(=O)Nc3ncns3)cc2Cl)C1` [Example 848, 5-chloro-4-{2-[1-(1-ethylazetidin-3-yl)-1H-pyrazol-5-yl]-4-fluorophenoxy}-2-fluoro-N-1,2,4-thiadiazol-5-ylbenzenesulfonamide] stands 5.1 nM.
Still for that read-out and setting: next, `CSc1nnc(NS(=O)(=O)c2ccc(Oc3ccc(Cl)cc3-c3ccnn3C)c(C#N)c2)s1` [Example 891, 4-[4-chloro-2-(1-methyl-1H-pyrazol-5-yl)phenoxy]-3-cyano-N-[5-(methylthio)-1,3,4-thiadiazol-2-yl]benzenesulfonamide]: 780 nM.
Same read-out and setting: next, `N#Cc1cc(S(=O)(=O)Nc2ccc(F)cn2)ccc1Oc1ccccc1C1CCCCO1` (stereo not shown) [Example 1005, 3-cyano-N-(5-fluoropyridin-2-yl)-4-[2-(tetrahydro-2H-pyran-2-yl)phenoxy]benzenesulfonamide]: over 3000 nM; `N#Cc1cc(S(=O)(=O)Nc2ncns2)ccc1Oc1ccc(Cl)cc1-c1ccc(C(=O)O)cc1` [Example 999, 5′-chloro-2′-{2-cyano-4-[(1,2,4-thiadiazol-5-ylamino)sulfonyl]phenoxy}biphenyl-4-carboxylic acid]: 3300 nM.
Take `Cc1n[nH]cc1-c1ccccc1Oc1ccc(S(=O)(=O)Nc2nccs2)cc1C(N)=O` [Example 983, 2-[2-(3-methyl-1H-pyrazol-4-yl)phenoxy]-5-[(1,3-thiazol-2-ylamino)sulfonyl]benzamide]: the IC50 is 2700 nM.
Same read-out and setting: next, `O=S(=O)(Nc1ncccn1)c1cc(Cl)c(Oc2ccc(Cl)cc2-c2ccnnc2)cc1F` [Example 941, 5-chloro-4-(4-chloro-2-pyridazin-4-ylphenoxy)-2-fluoro-N-pyrimidin-2-ylbenzenesulfonamide]: 72 nM.
On the same count and under the same terms, under `O=S(=O)(Nc1ncns1)c1ccc(Oc2cc(F)c(Cl)cc2-c2ccnnc2)c(F)c1` [Example 930, 4-(4-chloro-5-fluoro-2-pyridazin-4-ylphenoxy)-3-fluoro-N-1,2,4-thiadiazol-5-ylbenzenesulfonamide] stands 230 nM; under `N#Cc1ccc(-c2cc(Cl)ccc2Oc2ccc(S(=O)(=O)Nc3ncns3)cc2C#N)nc1` [Example 853, 4-[4-chloro-2-(5-cyanopyridin-2-yl)phenoxy]-3-cyano-N-1,2,4-thiadiazol-5-ylbenzenesulfonamide], 740 nM.
Same read-out and setting: under `O=C(c1cccc(-c2cc(Cl)ccc2Oc2cc(F)c(S(=O)(=O)Nc3ncns3)cc2F)c1)N1CCC1` [Example 855, 4-{[3′-(azetidin-1-ylcarbonyl)-5-chlorobiphenyl-2-yl]oxy}-2,5-difluoro-N-1,2,4-thiadiazol-5-ylbenzenesulfonamide] stands 4.2 nM.
